The source of these data is article PMC12866179, “Oxidized MIF is an Alzheimer’s disease drug target relaying external risk factors to tau pathology” (Cell Reports Medicine, 2025).

The format of data set [1] is in vivo. The note with it: compared with PAV-174. The procedure:
Figure S5. PAV-17 4 decreases ta u phosphorylation and aggr e gat ion in vi v o. Rel a ted to […]
(A) MTD (Maximum Tol erated Dose) assessment of PAV com pounds in BALB/c mice. BALB/c mice we re dosed through int ra pe rit o ne al (IP ) ro ute at di ff e ren t doses as pe r bo dy we igh t of an ima ls an d mice we re obser ved at di ff e ren t time interval for toxic signs till 48 h, PD (Post dose) . MTD at wa s declared at NOAEL (No-obser ved-adver se-effect level) conc. of PAV […]
(B) PAV-61 7 dose- an d MIF-de pe nd en t ly reduces tau phosphorylati on (A T8) . SH-SY5Y-P301S-control or -MIF-knockdown cel ls we re treated with the indicated concentrations of PAV- […]
cel ls. The di ag ram s show the signals of AT8 normalized to total tau (HT7 ) from six (n =6) in de pe nd en t exper iments. One-wa y ANOVA (Sidak´s post-hoc)
(C) Pharmacokinetic assessment of PAV-61 7 in Sprague Da wley ra ts (S D). Ma le SD ra ts (n=4) we re dosed via three ro utes na me ly intravenous (IV )- 1 mg/kg, (IP )- 5 mg/kg an d per ora l (P O)- 5 mg/kg. Plasma concentration wa s anal yzed at di ff e ren t time intervals. Pharmacokinetic pa ra met e rs we re de t erm ine d usi ng Win No nlin . Cma x (p ea k pl asma concentration) achieved through IV wa s 12 8 ng / mL, IP wa s 36 2. 6 ng / mL an d PO wa s 15 1. 1 ng / mL at Tmax (time of pe ak concentration obser ved) 1 h, 0. 5 h an d 4 h respectively. […]

Another data set concerns HSV-1. Kind of data set: HSV-1 infection of differentiated LUHMES cells (immunocytochemistry, western blot). The settings on record: infected with HSV-1. It counts as cell-based, HSV-1 KOS strain. The procedure:
4x10^5 Vero cells, 8x10^5 SH-SY5Y or 2x10^6 differentiated LUHMES (differentiation day 6) cells were seeded into 12-well plates. After 24h the cells were treated with compounds (as indicated in the figures) and after 1h they were infected with HSV-1 applying MOIs as described in the figures. After 20h (or at indicated time points) cells were either washed twice with PBS, then lysed in cold PBS/1% NP40 including the cOmplete EDTA-free protease inhibitor cocktail (Roche) and phosphatase inhibitor cocktail (Sigma) or virus was released by freeze-thawing and ultrasonic treatment for analysis in viral plaque assay (see above). For immunocytochemistry analysis 5x10^4 LUHMES cells at differentiation day 2 were seeded on 13 mm coverslips that were coated with L-ornithine and fibronectin (see above) and placed into 24-well plates. After four additional days of differentiation the cells were infected with HSV-1 (MOI = 1). […] After the protein concentration of cell lysates and homogenates had been determined using the DC Protein Assay Kit (Bio-Rad), 20 μg of each sample were dissolved in NuPAGE LDS Sample buffer (including 2% β-mercaptoethanol), boiled at 100°C for 5 min and then separated on NuPAGE Novex 4–12% Bis-Tris midi gels (Invitrogen) using NuPAGE MES SDS Running buffer (Invitrogen). […] Signal intensities were calculated using the Image Studio Version 2.1 software (LI-COR Biosciences). […]

Regarding `[I-].c1cc2nc3ccc(N4CCCC4)cc3[s+]c2cc1N1CCCC1` [PAV-617, 3,7-Di(pyrrolidine-1-yl)phenothiazine-5-ium iodide], the toxicity in mice entry in data set [1] is given as “less toxic in mice”.

As to `CCc1cc(N2CCCC2)cc2[s+]c3cc(N4CCCC4)cc(C)c3nc12.[I-]` [PAV-174, 3,7-Di(pyrrolidine-1-yl) 1-ethyl-9-methyl-phenothiazin-5-ium iodide], the “viral antigens (HSV-1-gC) in differentiated LUHMES cells” value with HSV-1 is listed as “reduced”.
